Laboratory results published in PMC3873415, “A Non-Biological Method for Screening Active Components against Influenza Virus from Traditional Chinese Medicine by Coupling a LC Column with Oseltamivir Molecularly Imprinted Polymers” (PLoS ONE, 2013).
Entries after “also recorded” stand apart in the source; their conditions may differ.

Columns and labels:
MDCK cells = details: dog
[1] = system: Influenza virus strain A/Goose/Dalian/3/2001 (H9N2); type: cell-based, avian influenza virus H9N2
[2] = system: Influenza virus strain A/Goose/Dalian/3/2001 (H9N2); type: cell-based, avian influenza virus H9N2; remark: listed apart in the source
[3] = system: avian influenza virus H9N2; type: cell-based
Kunming mice = details: cited from earlier work
enterovirus 71 [4] = details: mice challenged with a lethal dose of enterovirus 71; cited from earlier work
enterovirus 71 [5] = details: enterovirus 71 on rhabdomyosarcoma cells; cited from earlier work

| Compound | TCD0 (maximum non-toxic concentration) (MDCK cells) [mg/mL] | Activity: HI [1] | Activity: CPE [2] | Activity (see Table 1) qualitative [3] | Activity (see Table 1) semi-quantitative [3] | Activity against H9N2 in vitro (in words) [3] | LD50 (Kunming mice; Kunming mice, acute toxicity, 95% confidence limit 88.08-280.31 mg/kg) [mg/kg] | tolerable dose (Kunming mice; Kunming mice, acute toxicity) | Morphological observation (Kunming mice; brain tissue of mice) | mortality and clinical symptoms (enterovirus 71 [4]) | viral RNA copy number (enterovirus 71 [5]) |
| --- | --- | --- | --- | --- | --- | --- | --- | --- | --- | --- | --- |
| CCOC(=O)C1=C[C@@H](OC(CC)CC)[C@H](NC(C)=O)[C@@H](N)C1 [OS (template), Oseltamivir] | 0.5 | No hemagglutination (H) was found in all tested groups at 24, 48 or 72 h. | The CPE of 0.5mg/ml OS-treated group was more severe than viral control group within 48 h. The CPE of groups 0.25, 0.125 and 0.0625 mg/ml were milder than viral control at 72 h. | 1 | 3 | had activity of alleviating CPE and HI against H9N2 in vitro |  |  |  |  |  |
| CC(=O)Oc1ccccc1C(=O)O [aspirin] | >0.5 | No differences between all treatment and control groups. | No differences between all treatment and control groups. | 0 | 0 |  |  |  |  |  |  |
| O=C(/C=C/c1ccc(O)c(O)c1)O[C@@H]1C[C@](O)(C(=O)O)C[C@@H](O)[C@H]1O [chlorogenic acid] | 0.016 | No differences between all treatment and control groups. | No differences between all treatment and control groups. | 0 | 0 |  |  |  |  |  |  |
| O=C1CCC[C@@H]2[C@H]3CCCN4CCC[C@@H](CN12)[C@@H]34 [matrine] | 0.4 | There was no H in 0.2 mg/ml matrine-treated group at 24 h and in 0.4mg/ml matrine-treated group at 24 or 48 h. | could protect MDCK cells from H9N2 in a dose-dependent manner; also recorded: The CPE of 0.4, 0.2 and 0.1 mg/ml matrine groups were milder than that of the viral control group | 1 | 3 | had activity of alleviating CPE and HI against H9N2 in vitro and high | 157.13 | above 80 mg/kg | degenerative changes of the nerve cells in the brain tissue of the mice | reduced the mortality and relieved clinical symptoms | could suppress the viral RNA copy number on rhabdomyosarcoma cells |
| O=C1CCC[C@@H]2[C@H]3CCC[N+]4([O-])CCC[C@@H](CN12)[C@@H]34 (stereo partly shown) [oxymatrine] | >2 | No differences between all treatment and control groups. | No differences between all treatment and control groups. | 0 | 0 | did not show any similar bioactivities |  |  |  |  |  |
| O=C1CCC[C@@H]2[C@H]3CCC[N+]4([O-])CCC[C@H](CN12)[C@@H]34 (stereo partly shown) [oxysophoridine] | >2 | No differences between all treatment and control groups | No differences between all treatment and control groups | 0 | 0 | did not show any similar bioactivities |  |  |  |  |  |
| O=C1CCC[C@@H]2[C@H]3CCCN4CCC[C@H](CN12)[C@@H]34 [sophoridine] | >2 | had HI activity only at concentration of TCD0; also recorded: There was no H of 2 mg/ml sophoridine-treated group at any test time points. But the rest test groups had H at all test time points | The CPE of 2 mg/ml sophoridine-treated group was more severe than that of the viral control at 48 h. The CPE of other test groups with low concentration were consistent with that of the viral control at 48 h. | 1 | 1 | low |  |  |  |  |  |
| phillyrin |  | had HI activity; also recorded: There was no H in 0.25 mg/ml phillyrin-treated group at 24 h and in 0.5mg/ml phillyrin-treated group at 24 or 48 h | could not alleviate CPE; also recorded: The CPE of 0.5 and 0.25 mg/ml phillyrin-treated groups were more severe than that of the viral control group within 48 h | 1 | 1 |  |  |  |  |  |  |
